Assay results published in paper PMC3050527 (Bioorganic & medicinal chemistry, 2010).
Entries after “also recorded” stand apart in the source; their conditions may differ.

How the values were obtained:
Assay type in all cases: biochemical
[1] = biological target: T1, hGIIA sPLA2 (Homo sapiens, UniProt P14555); test: continuous fluorimetric sPLA2 assay, human GIIA; details: compared with GK126
T1 sequence (P14555 21-144): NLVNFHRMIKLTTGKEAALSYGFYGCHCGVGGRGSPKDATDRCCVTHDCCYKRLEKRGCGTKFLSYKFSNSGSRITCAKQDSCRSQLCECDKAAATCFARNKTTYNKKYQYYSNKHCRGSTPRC

[2] = biological target: T2, hGX sPLA2 (Homo sapiens, UniProt O15496); test: continuous fluorimetric sPLA2 assay, human GX
T2 sequence (O15496 43-165): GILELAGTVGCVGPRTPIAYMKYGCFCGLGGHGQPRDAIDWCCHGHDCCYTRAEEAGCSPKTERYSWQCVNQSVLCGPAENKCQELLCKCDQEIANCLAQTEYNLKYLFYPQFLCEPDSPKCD

[3] = biological target: T3, cPLA2 (Homo sapiens, UniProt P47712); test: inhibition of cPLA2; details: at 1µµ
T3 sequence (P47712 1-749): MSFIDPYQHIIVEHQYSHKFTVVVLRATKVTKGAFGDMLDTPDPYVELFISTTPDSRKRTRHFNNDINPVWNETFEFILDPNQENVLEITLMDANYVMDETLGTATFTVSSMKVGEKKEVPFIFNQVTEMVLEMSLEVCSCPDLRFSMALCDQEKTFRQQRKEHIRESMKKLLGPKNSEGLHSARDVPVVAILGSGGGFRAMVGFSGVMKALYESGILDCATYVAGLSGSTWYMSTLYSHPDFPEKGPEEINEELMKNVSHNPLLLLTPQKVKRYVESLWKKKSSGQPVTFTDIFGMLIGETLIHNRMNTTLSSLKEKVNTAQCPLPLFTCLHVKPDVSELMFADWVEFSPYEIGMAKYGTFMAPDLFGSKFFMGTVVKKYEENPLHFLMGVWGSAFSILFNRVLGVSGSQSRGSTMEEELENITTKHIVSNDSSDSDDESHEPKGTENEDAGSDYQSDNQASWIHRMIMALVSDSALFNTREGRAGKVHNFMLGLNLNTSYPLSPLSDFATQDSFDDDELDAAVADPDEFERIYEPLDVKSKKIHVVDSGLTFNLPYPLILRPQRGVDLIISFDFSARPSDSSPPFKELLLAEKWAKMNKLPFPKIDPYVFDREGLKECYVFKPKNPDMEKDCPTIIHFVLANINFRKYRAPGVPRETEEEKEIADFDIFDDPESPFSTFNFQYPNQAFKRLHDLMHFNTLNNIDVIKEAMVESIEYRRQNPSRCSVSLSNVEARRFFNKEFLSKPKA

sPLA2 inhibitory activity (in words) [1]	inhibition against cPLA2 [3]	SMILES	inhibition of human GX sPLA2 (in words) [2]
inactive		CCCCCCCCCCCCCCCC(=O)N[C@@H](CC(C)C)C(=O)O [GK144, (S)-4-Methyl-2-palmitamidopentanoic acid]	
	≤ 12%	CCCCCCCCCCCCCCC(=O)C(=O)N[C@@H](CC(C)C)C(=O)O [GK126, (S)-4-Methyl-2-(2-oxohexadecanamido)pentanoic acid]	did not show any inhibition; also recorded: did not display any measurable inhibition
inactive		CCCCCCCCCCCCCCC(=O)C(=O)N[C@@H](Cc1ccccc1)C(=O)O [GK141, (S)-2-(2-Oxohexadecanamido)-3-phenylpropanoic acid]	
